The values below come from patent publication US9206241B2, “Modified prokaryotic ubiquitin-like protein and methods of use thereof” (priority 2012, dated 2015).

In experiment [1] the target is Dop (deamidase of Pup), Dop-His6 (Mycobacterium tuberculosis, UniProt P9WNU9). As to conditions: for Km / kcat: Dop kinetics with synthetic substrate, n.a. = no activity.
Text: SoftMax Pro (Molecular Devices) was used to measure the data and GraphPad Prism was used to fit the kinetic data.
Experiment [2] deals with lysates of E. coli. The experiment in a line: Hydrolysis of substrate in E. coli lysates. Format: biochemical.

Chain of Dop (deamidase of Pup), Dop-His6 (P9WNU9 whole entry): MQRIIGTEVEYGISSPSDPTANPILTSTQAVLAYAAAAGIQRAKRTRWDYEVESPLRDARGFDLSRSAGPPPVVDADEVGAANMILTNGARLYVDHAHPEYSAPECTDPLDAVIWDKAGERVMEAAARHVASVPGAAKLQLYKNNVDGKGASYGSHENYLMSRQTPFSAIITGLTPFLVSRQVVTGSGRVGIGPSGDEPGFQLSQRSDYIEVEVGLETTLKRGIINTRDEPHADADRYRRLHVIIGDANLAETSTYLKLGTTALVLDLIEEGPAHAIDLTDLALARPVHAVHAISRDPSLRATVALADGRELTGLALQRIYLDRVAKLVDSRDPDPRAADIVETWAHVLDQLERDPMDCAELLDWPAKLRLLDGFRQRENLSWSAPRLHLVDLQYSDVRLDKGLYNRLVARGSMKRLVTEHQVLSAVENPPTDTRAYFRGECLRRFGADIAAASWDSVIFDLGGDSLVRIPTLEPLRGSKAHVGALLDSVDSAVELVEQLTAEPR

What is called Km is the substrate concentration at which the rate is half of its maximum. As usually defined, the kcat is the maximal rate divided by the concentration of active sites. Consider “EETDDLLDEIDDVLEENAEDFVRAYVQKGG-Glu(AMC) [1b]”, for which, in experiment [1], the Km worked out at 0.75 ± 0.08 µM and the kcat is 0.0113 ± 0.00033 s⁻¹.
As for “MAQEQTKRGGGGGDDDDIAGSTAAGQERREKLTEETDDLLDEIDDV LEENAEDFVRAYVQKGG-Glu(AMC) [1a]”, the “hydrolysis of substrate in lysate” value in experiment [2] is recorded as “could not hydrolyze”. Besides, in experiment [1], the Km is 0.65 ± 0.07 µM and the kcat is 0.01 ± 0.00033 s⁻¹. In addition, in experiment [1] (increase in fluorescence over time), the “hydrolytic activity of Dop on the substrate (cleavage of AMC)” value was “showed hydrolytic activity”.
